Tests used:
[1] = molecular target: T1, Human PTP1B catalytic domain (1-300) (Homo sapiens, UniProt P18031); assay: PTP1B Michaelis-Menten kinetic assay with DiFMUP; type: biochemical; details: PTP1B 0.5 nM
T1 construct: Human PTP1B catalytic domain (1–300) was cloned into PET-15b; His tag (pET-15b) (N); made in house; host or cells: E. coli (as for STEP46, BL21 (DE3))
T1 sequence (P18031 1-300): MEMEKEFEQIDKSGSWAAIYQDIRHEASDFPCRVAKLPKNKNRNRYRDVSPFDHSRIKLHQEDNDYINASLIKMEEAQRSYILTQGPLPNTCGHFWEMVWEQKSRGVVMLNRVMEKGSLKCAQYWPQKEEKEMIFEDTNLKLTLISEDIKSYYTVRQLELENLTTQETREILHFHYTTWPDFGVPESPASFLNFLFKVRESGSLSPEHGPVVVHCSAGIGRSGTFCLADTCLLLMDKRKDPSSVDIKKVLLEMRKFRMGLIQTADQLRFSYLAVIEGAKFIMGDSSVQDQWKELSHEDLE
Protocol: Human STEP46 and PTP1B activity was measured at room temperature (RT) in a 384-well plate format standard phosphatase fluorescence intensity assay using DiFMUP as a substrate and a total reaction volume of 25 μL. PTP working solutions were prepared at a 0.625 nM concentration (for a final concentration of 0.5 nM) in buffer containing 50 mM Bis-Tris pH 6.0, 50 mM NaCl, 5 mM DTT, and 0.01% Tween® 20. DiFMUP working solutions at 5X final concentration were prepared in 50 mM Bis-Tris pH 6.0, 50 mM NaCl, and 0.01% Tween 20. […] Fluorescence intensity was measured in kinetic mode (every minute for 10 min) using a Tecan Spark® Multimode Microplate Reader (Tecan, Groedig, Austria) with an excitation wavelength of 360 nm and an emission wavelength of 460 nm. The initial rates were determined from the linear progress curves of the PTP reaction. […] Michaelis–Menten plots were generated for each PTP construct, and Michaelis–Menten constants (Km) were calculated using the program GraphPad Prism (version 8, GraphPad Software, Inc., San Diego, CA, USA).

full-length human STEP46 = molecular target: T2, full-length human STEP46 (Homo sapiens, UniProt P54829); assay: STEP46 biochemical inhibition assay (DiFMUP phosphatase fluorescence intensity assay); details: powder-confirmed hits, 10-pt dose-response, 0.5 nM STEP46, DiFMUP 3 μM, 20 min preincubation, pH 6.0, RT
T2 construct: Codon-optimized human full-length STEP46 cDNA was synthesized; His tag (pET-15b) (N); made in house; host or cells: E. coli BL21 (DE3)
T2 sequence (P54829 173-541 isoform P54829-3 limits assumed): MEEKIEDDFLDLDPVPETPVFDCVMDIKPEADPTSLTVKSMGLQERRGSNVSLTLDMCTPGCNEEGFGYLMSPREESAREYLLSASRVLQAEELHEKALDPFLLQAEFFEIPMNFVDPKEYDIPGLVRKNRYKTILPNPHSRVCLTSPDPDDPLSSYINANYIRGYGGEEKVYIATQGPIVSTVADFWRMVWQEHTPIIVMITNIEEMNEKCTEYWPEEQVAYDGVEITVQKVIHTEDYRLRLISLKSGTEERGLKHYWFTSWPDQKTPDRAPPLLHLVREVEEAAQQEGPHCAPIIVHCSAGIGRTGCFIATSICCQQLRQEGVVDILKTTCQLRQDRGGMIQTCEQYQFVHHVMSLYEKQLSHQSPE
Source text: Employing the established STEP46 DiFMUP assay to determine enzymatic activity, we tested the 72 confirmed hits in 10-pt dose-response biochemical inhibition experiments. […] This rate of biochemically active compounds from confirmed PTS hits was in agreement with our prior experience from a similar PTS screening campaign against the SHP2 phosphatase (unpublished data). Next, we obtained commercial dry powders of the 17 biochemically active hits to confirm their activity from pure, fresh material. Powders were quality controlled using standard ^1H-NMR and LC-MS methods and repurified in cases where purity was determined to be below 95%. Pure powders were then retested in 10-pt dose-response STEP46 inhibition assays. Activity could be confirmed for 10 of the 17 powders.
(§1) Hit compounds were tested at room temperature (RT) in a 384-well plate format standard phosphatase fluorescence intensity assay using DiFMUP as a substrate and a total reaction volume of 25 μL. Compounds or vehicle (DMSO) were spotted in triplicate into a black Greiner FLUOTRAC 200 384-well microplate for a 10-point dose-response assay using the Echo 555 liquid handler. PTP working solutions were prepared at a 0.625 nM concentration (for a final concentration of 0.5 nM) in buffer containing 50 mM Bis-Tris pH 6.0, 50 mM NaCl, 5 mM DTT, and 0.01% Tween 20. DiFMUP working solutions at 5X final concentration were prepared in 50 mM Bis-Tris pH 6.0, 50 mM NaCl, and 0.01% Tween 20. PTP working solution (20 μL) was dispensed into the microplate and incubated with compound for 20 min at RT. […] The reaction was initiated by addition of 5 μL DiFMUP working solutions. Fluorescence intensity was measured in a kinetic mode as described above. IC50 values were calculated from the corrected initial rates by nonlinear regression using the program GraphPad Prism (version 8, GraphPad Software, Inc., San Diego, CA, USA).

[2] = molecular target: T1, Human PTP1B catalytic domain (1-300); assay: PTP1B biochemical inhibition assay (DiFMUP phosphatase fluorescence intensity assay); details: powder-confirmed hits, 10-pt dose-response, 0.5 nM PTP1B, DiFMUP 25 μM, 20 min preincubation, pH 6.0, RT
Protocol: One of the major issues in prior STEP HTS campaigns using phosphatase activity as a readout was the lack of potent chemical matter with relative selectivity for STEP (PubChem AID: 588,619 and our unpublished data). […] For these assays, we expressed and purified the catalytic domain of PTP1B (1-300) using an approach similar to the one described for STEP46 above. The enzymatic activity of the highly pure PTP1B was assessed by adapting the DiFMUP phosphatase assay. Similar to STEP46, a concentration of 0.5 nM PTP1B was found optimal for kinetic experiments. […] Using DiFMUP at that concentration, we tested all 10 powder-confirmed hits in 10-pt dose-response inhibition assays against PTP1B.
as §1

AD mice = system: AD mice; set-up: method as in PMID 25093460; details: cited from earlier work

| SMILES | Km [1] [µM] | IC50 (full-length human STEP46) [µM] | IC50 [2] [µM] | Effect on cognitive deficits in AD mice (AD mice) |
| --- | --- | --- | --- | --- |
| Cc1cc(=O)oc2c(F)c(OP(=O)(O)O)c(F)cc12 [DiFMUP, 6,8-difluoro-4-methylumbelliferyl phosphate] | 25 | – | – | – |
| Cc1ccc(Nc2nc(CSc3nnnn3-c3ccccc3)cc(=O)[nH]2)cc1 [SBI-0738] | – | 5.7 | 6.1 | – |
| O=C(CSc1c[nH]nn1)Nc1ccc(/C=C/c2ccccc2)cc1 [SBI-1359] | – | 7 | 28 | – |
| NC(=O)c1cccc(NC(=O)c2cc3c(ccc4ccccc43)o2)c1 [SBI-2136] | – | 5.3 | 14 | – |
| Cc1cc(C)cc(C(=O)Nc2ccc(-c3nc4ccccc4[nH]3)cc2)c1 [SBI-6083] | – | 5.4 | > 100 | – |
| O=C(Cc1ccc(Cl)cc1)Nc1ccc(C(=O)Nc2cccc(O)c2)cc1 [SBI-6727] | – | 18 | 57 | – |
| Nc1ccc(NCC2CCCO2)c(C(=O)O)c1 (stereo not shown) [SBI-8929] | – | 33 | 20 | – |
| Nc1cc(C(F)(F)F)cc2c1SSSSS2 [TC-2153] | – | – | – | effectively reversed cognitive deficits |

Second part, led by results:

| Km [1] [µM] | IC50 (full-length human STEP46) [µM] | IC50 [2] [µM] | SMILES | Effect on cognitive deficits in AD mice (AD mice) |
| --- | --- | --- | --- | --- |
| – | 5.5 | 22 | Cc1c2c(=O)n(-c3nc4ccccc4s3)[nH]c2cc(=O)n1CCC(C)C [SBI-0743] | – |
| – | 5 | > 100 | Nc1oc2cc(O)ccc2c(=O)c1-c1nc2ccccc2s1 [SBI-6066] | – |
| – | 32 | > 100 | N#Cc1sc2nc(-c3ccc4c(c3)OCO4)ccc2c1N [SBI-7297] | – |
| – | 16 | 79 | COc1ccccc1-c1ccc2c(N)c(C#N)sc2n1 [SBI-8771] | – |
